Experimental data: the supplement of paper PMC10307832

Assays:
Test in all cases: relative viability (nuclei count vs DMSO), 5 days (fraction); higher = more cells survive
AZD8055 + Navitoclax = compound: COc1ccc(-c2ccc3c(N4CCOC[C@@H]4C)nc(N4CCOC[C@@H]4C)nc3n2)cc1CO [AZD8055] + CC1(C)CCC(c2ccc(Cl)cc2)=C(CN2CCN(c3ccc(C(=O)NS(=O)(=O)c4ccc(N[C@H](CCN5CCOCC5)CSc5ccccc5)c(S(=O)(=O)C(F)(F)F)c4)cc3)CC2)C1 [Navitoclax] (partner 0.5 µM)
How it was run: (§1)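 Relative viability divides the nuclei count in treated wells by that in vehicle wells. Lung cancer cell lines were seeded in 1536-well plates, dosed by pin tool the next day, and fixed and stained after 5 days in one step with final 0.05% Triton X-100, 1% formaldehyde and 1 ug/ml Hoechst. Dosing was a single drug or a fixed anchor-drug dose plus five library-drug doses (not always all listed) in √10 steps, and values are medians of duplicate plates imaged at 4×.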

AZD8055 + Linsitinib = compound: COc1ccc(-c2ccc3c(N4CCOC[C@@H]4C)nc(N4CCOC[C@@H]4C)nc3n2)cc1CO [AZD8055] + C[C@]1(O)C[C@@H](c2nc(-c3ccc4ccc(-c5ccccc5)nc4c3)c3c(N)nccn32)C1 [Linsitinib] (partner 1 µM)
How it was run: as §1

AZD8055 + Alpelisib = compound: COc1ccc(-c2ccc3c(N4CCOC[C@@H]4C)nc(N4CCOC[C@@H]4C)nc3n2)cc1CO [AZD8055] + Cc1nc(NC(=O)N2CCC[C@H]2C(N)=O)sc1-c1ccnc(C(C)(C)C(F)(F)F)c1 [Alpelisib] (partner 2 µM)
How it was run: as §1

AZD8055 + Vorinostat = compound: COc1ccc(-c2ccc3c(N4CCOC[C@@H]4C)nc(N4CCOC[C@@H]4C)nc3n2)cc1CO [AZD8055] + O=C(CCCCCCC(=O)Nc1ccccc1)NO [Vorinostat] (partner 1 µM)
How it was run: as §1

Row | Cell Line | relative viability (AZD8055 + Navitoclax; first compound 0.01 µM) | relative viability (AZD8055 + Navitoclax; first compound 0.03162 µM) | relative viability (AZD8055 + Navitoclax; first compound 0.1 µM) | relative viability (AZD8055 + Navitoclax; first compound 0.3162 µM) | relative viability (AZD8055 + Navitoclax; first compound 1 µM) | relative viability (AZD8055 + Linsitinib; first compound 0.01 µM) | relative viability (AZD8055 + Linsitinib; first compound 0.03162 µM) | relative viability (AZD8055 + Linsitinib; first compound 0.1 µM) | relative viability (AZD8055 + Linsitinib; first compound 0.3162 µM) | relative viability (AZD8055 + Linsitinib; first compound 1 µM) | relative viability (AZD8055 + Alpelisib; first compound 0.01 µM) | relative viability (AZD8055 + Alpelisib; first compound 0.03162 µM) | relative viability (AZD8055 + Alpelisib; first compound 0.1 µM) | relative viability (AZD8055 + Alpelisib; first compound 0.3162 µM) | relative viability (AZD8055 + Alpelisib; first compound 1 µM) | relative viability (AZD8055 + Vorinostat; first compound 0.01 µM) | relative viability (AZD8055 + Vorinostat; first compound 0.03162 µM) | relative viability (AZD8055 + Vorinostat; first compound 0.1 µM) | relative viability (AZD8055 + Vorinostat; first compound 0.3162 µM) | relative viability (AZD8055 + Vorinostat; first compound 1 µM)
1 | LCLC-97TM1 | 0.45 | 0.225 | 0.214 | 0.13 | 0.144 | 0.182 | 0.143 | 0.13 | 0.122 | 0.139 | 0.233 | 0.179 | 0.135 | 0.14 | 0.135 | 0.751 | 0.585 | 0.414 | 0.354 | 0.308
2 | HARA | 1.16 | 1.13 | 0.935 | 0.738 | 0.393 | 0.942 | 0.998 | 0.517 | 0.303 | 0.202 | 0.786 | 0.744 | 0.376 | 0.222 | 0.252 | 0.574 | 0.527 | 0.441 | 0.24 | 0.227
3 | HCC-78 | 0.817 | 0.574 | 0.339 | 0.238 | 0.198 | 0.442 | 0.355 | 0.222 | 0.195 | 0.177 | 0.303 | 0.204 | 0.181 | 0.217 | 0.221 | 0.428 | 0.394 | 0.38 | 0.398 | 0.321
4 | NCI-H1666 | 0.878 | 0.819 | 0.731 | 0.561 | 0.417 | 0.802 | 0.666 | 0.417 | 0.552 | 0.375 | 0.884 | 0.696 | 0.621 | 0.47 | 0.438 | 0.933 | 1.07 | 0.892 | 0.856 | 0.736
5 | NCI-H2347 | 0.859 | 0.595 | 0.453 | 0.339 | 0.24 | 0.875 | 0.805 | 0.746 | 0.51 | 0.436 | 1.19 | 0.934 | 0.674 | 0.467 | 0.413 | 0.424 | 0.66 | 0.406 | 0.304 | 0.352
6 | NCI-H838 | 0.985 | 0.627 | 0.347 | 0.358 | 0.305 | 0.664 | 0.383 | 0.32 | 0.208 | 0.25 | 0.981 | 0.781 | 0.412 | 0.276 | 0.288 | 0.695 | 0.577 | 0.447 | 0.428 | 0.346
7 | NCI-H2023 | 0.951 | 0.871 | 0.598 | 0.249 | 0.181 | 0.45 | 0.343 | 0.28 | 0.17 | 0.12 | 0.439 | 0.431 | 0.311 | 0.141 | 0.141 | 0.65 | 0.405 | 0.335 | 0.14 | 0.115
8 | 201T | 1.22 | 1.23 | 1.21 | 1.03 | 0.819 | 0.997 | 0.906 | 0.758 | 0.609 | 0.554 | 0.987 | 0.911 | 0.775 | 0.611 | 0.569 | 0.974 | 0.943 | 0.824 | 0.679 | 0.575
9 | NCI-H1915 | 0.853 | 0.769 | 0.81 | 0.757 | 0.509 | 1.19 | 0.977 | 1.08 | 0.837 | 0.558 | 1.12 | 0.941 | 0.996 | 0.645 | 0.455 | 0.486 | 0.36 | 0.419 | 0.284 | 0.246
10 | NCI-H2009 | 1.11 | 1.14 | 1.04 | 0.553 | 0.323 | 1.17 | 1.1 | 0.891 | 0.692 | 0.374 | 1.14 | 1.03 | 0.931 | 0.583 | 0.401 | 0.816 | 0.798 | 0.732 | 0.458 | 0.395
11 | BEN | 0.0642 | 0.064 | 0.0538 | 0.0837 | 0.0613 | 0.955 | 0.574 | 0.41 | 0.325 | 0.279 | 1.06 | 0.593 | 0.391 | 0.341 | 0.338 | 0.614 | 0.443 | 0.442 | 0.327 | 0.297
12 | PC-14 | 1.15 | 1.16 | 1.02 | 0.405 | 0.351 | 1.03 | 0.944 | 0.669 | 0.526 | 0.211 | 0.977 | 0.913 | 0.795 | 0.316 | 0.155 | 0.78 | 0.606 | 0.586 | 0.201 | 0.125
13 | SK-MES-1 | 1.05 | 1.25 | 0.818 | 0.404 | 0.342 | 1.06 | 0.932 | 0.743 | 0.447 | 0.313 | 0.856 | 0.64 | 0.542 | 0.303 | 0.269 | 1.06 | 0.958 | 0.962 | 0.427 | 0.314
14 | NCI-H727 | 0.432 | 0.397 | 0.324 | 0.168 | 0.215 | 0.246 | 0.246 | 0.302 | 0.28 | 0.248 | 0.564 | 0.435 | 0.356 | 0.255 | 0.269 | 1.3 | 1.12 | 1.18 | 0.869 | 0.778
15 | NCI-H1355 | 0.959 | 0.736 | 0.382 | 0.21 | 0.21 | 0.684 | 0.543 | 0.354 | 0.234 | 0.214 | 0.677 | 0.472 | 0.332 | 0.215 | 0.222 | 0.587 | 0.541 | 0.414 | 0.214 | 0.235
16 | NCI-H1975 | 0.967 | 0.91 | 0.802 | 0.279 | 0.247 | 0.897 | 0.581 | 0.469 | 0.265 | 0.219 | 0.454 | 0.365 | 0.259 | 0.249 | 0.231 | 0.749 | 0.623 | 0.448 | 0.282 | 0.263
